Measurements published in patent EP4635500A1, “THERAPEUTIC AGENT FOR BACTERIAL INFECTION” (Sumitomo Pharma Co., Ltd., priority 2022, dated 2024).
In brackets after ≈: the same amount, converted by molar mass. Read-outs that look alike come from different tables or passages of the source.

Test system: Enterobacterales
Assay: MIC, broth microdilution, CDC/FDA Antibiotic Resistance Isolate Bank (Example 7, Tables 8, 11, 12)
Assay type: cell-based

SMILES: CN(C)c1cc(NC(=O)CNC(C)(C)C)c(O)c2c1C[C@H]1C[C@H]3[C@H](N(C)C)C(=O)C(C(N)=O)=C(O)[C@@]3(O)C(=O)C1=C2O [Tigecyeline]
- MIC (Citrobacter freundii, KUB No. 5654, AR Bank # 157, read-out: MIC): 0.5 µg/mL (≈ 0.854 µM)
- MIC (Enterobacter cloacae, Enterobacter cloacae KUB No. 5792, AR Bank #448): 1 µg/mL (≈ 1.71 µM)
- MIC (Enterobacter cloacae, Enterobacter cloacae KUB No. 5807, AR Bank #501): 1 µg/mL (≈ 1.71 µM)
- MIC (Enterobacter cloacae, Enterobacter cloacae KUB No. 5808, AR Bank #502): 4 µg/mL (≈ 6.83 µM)
- MIC (Enterobacter cloacae, Enterobacter cloacae group, KUB No. 5629, AR Bank # 132): 0.5 µg/mL (≈ 0.854 µM)
- MIC (Enterobacter cloacae, KUB No. 5529, AR Bank# 32): 1 µg/mL (≈ 1.71 µM)
- MIC (Enterobacter cloacae, KUB No. 5535, AR Bank# 38): 4 µg/mL (≈ 6.83 µM)
- MIC (Enterobacter cloacae, KUB No. 5547, AR Bank# 50): 0.25 µg/mL (≈ 0.427 µM)
- MIC (Enterobacter cloacae, KUB No. 5550, AR Bank# 53): 1 µg/mL (≈ 1.71 µM)
- MIC (Enterobacter cloacae, KUB No. 5557, AR Bank# 60): 0.25 µg/mL (≈ 0.427 µM)
- MIC (Enterobacter cloacae, KUB No. 5562, AR Bank # 65): 0.5 µg/mL (≈ 0.854 µM)
- MIC (Enterobacter cloacae, KUB No. 5569, AR Bank # 72): 2 µg/mL (≈ 3.41 µM)
- MIC (Enterobacter cloacae, KUB No. 5570, AR Bank # 73): 1 µg/mL (≈ 1.71 µM)
- MIC (Enterobacter cloacae, KUB No. 5590, AR Bank # 93): 0.5 µg/mL (≈ 0.854 µM)
- MIC (Enterobacter cloaccae, KUB No. 5651, AR Bank # 154): 0.5 µg/mL (≈ 0.854 µM)
- MIC (Enterobacter clooreae, KUB No. 5633, AR Bank # 136): 2 µg/mL (≈ 3.41 µM)
- MIC (Escherichia coli, Escherichia coli KUB No. 5783, AR Bank #437): 1 µg/mL (≈ 1.71 µM)
- MIC (Escherichia coli, Escherichia coli KUB No. 5794, AR Bank #450): 0.5 µg/mL (≈ 0.854 µM)
- MIC (Escherichia coli, Escherichia coli KUB No. 5795, AR Bank #451): 0.5 µg/mL (≈ 0.854 µM)
- MIC (Escherichia coli, Escherichia coli KUB No. 5796, AR Bank #452): 0.5 µg/mL (≈ 0.854 µM)
- MIC (Escherichia coli, Escherichia coli KUB No. 5803, AR Bank #861): 0.25 µg/mL (≈ 0.427 µM)
- MIC (Escherichia coli, KUB No. 5558, AR Bank # 61): 0.25 µg/mL (≈ 0.427 µM)
- MIC (Escherichia coli, KUB No. 5564, AR Bank # 67): 0.25 µg/mL (≈ 0.427 µM)
- MIC (Escherichia coli, KUB No. 5566, AR Bank # 69): 0.25 µg/mL (≈ 0.427 µM)
- MIC (Escherichia coli, KUB No. 5574, AR Bank # 77): 0.12 µg/mL (≈ 0.205 µM)
- MIC (Escherichia coli, KUB No. 5578, AR Bank # 81): 0.12 µg/mL (≈ 0.205 µM)
- MIC (Escherichia coli, KUB No. 5581, AR Bank # 84): 0.12 µg/mL (≈ 0.205 µM)
- MIC (Escherichia coli, KUB No. 5582, AR Bank # 85): 0.25 µg/mL (≈ 0.427 µM)
- MIC (Escherichia coli, KUB No. 5583, AR Bank # 86): 0.5 µg/mL (≈ 0.854 µM)
- MIC (Escherichia coli, KUB No. 5586, AR Bank # 89): 0.25 µg/mL (≈ 0.427 µM)
- MIC (Escherichia coli, KUB No. 5601, AR Bank # 104): 0.12 µg/mL (≈ 0.205 µM)
- MIC (Escherichia coli, KUB No. 5611, AR Bank # 114): 0.12 µg/mL (≈ 0.205 µM)
- MIC (Escherichia coli, KUB No. 5615, AR Bank # 118): 0.12 µg/mL (≈ 0.205 µM)
- MIC (Escherichia coli, KUB No. 5616, AR Bank # 119): 0.5 µg/mL (≈ 0.854 µM)
- MIC (Escherichia coli, KUB No. 5625, AR Bank # 128): 0.12 µg/mL (≈ 0.205 µM)
- MIC (Escherichia coli, KUB No. 5634, AR Bank # 137): 0.5 µg/mL (≈ 0.854 µM)
- MIC (Escherichia coli, KUB No. 5646, AR Bank # 149): 0.25 µg/mL (≈ 0.427 µM)
- MIC (Escherichia coli, KUB No. 5647, AR Bank # 150): 0.25 µg/mL (≈ 0.427 µM)
- MIC (Escherichia coli, KUB No. 5648, AR Bank # 151): 0.25 µg/mL (≈ 0.427 µM)
- MIC (Escherichia coli, KUB No. 5659, AR Bank # 162): 0.5 µg/mL (≈ 0.854 µM)
- MIC (Klebsiella aerogenes, Enterobacter aerogenes, KUB No. 5559, AR Bank # 62): 2 µg/mL (≈ 3.41 µM)
- MIC (Klebsiella aerogenes, Enterobacter aerogenes, KUB No. 5571, AR Bank # 74): 0.25 µg/mL (≈ 0.427 µM)
- MIC (Klebsiella aerogenes, Enterobacter aerogenes, KUB No. 5658, AR Bank # 161): 1 µg/mL (≈ 1.71 µM)
- MIC (Klebsiella oxytoca, KUB No. 5568, AR Bank # 71): 1 µg/mL (≈ 1.71 µM)
- MIC (Klebsiella oxytoca, KUB No. 5644, AR Bank # 147): 0.5 µg/mL (≈ 0.854 µM)
- MIC (Klebsiella ozaenae, KUB No. 5548, AR Bank# 51): 1 µg/mL (≈ 1.71 µM)
- MIC (Klebsiella ozaenae, KUB No. 5593, AR Bank # 96): 0.5 µg/mL (≈ 0.854 µM)
- MIC (Klebsiella pneumoniae, KUB No. 55, AR Bank# 47): 0.5 µg/mL (≈ 0.854 µM)
- MIC (Klebsiella pneumoniae, KUB No. 5531, AR Bank# 34): 0.5 µg/mL (≈ 0.854 µM)
- MIC (Klebsiella pneumoniae, KUB No. 5536, AR Bank# 39): 1 µg/mL (≈ 1.71 µM)
- MIC (Klebsiella pneumoniae, KUB No. 5537, AR Bank# 40): 2 µg/mL (≈ 3.41 µM)
- MIC (Klebsiella pneumoniae, KUB No. 5538, AR Bank# 41): 1 µg/mL (≈ 1.71 µM)
- MIC (Klebsiella pneumoniae, KUB No. 5540, AR Bank# 43): 0.5 µg/mL (≈ 0.854 µM)
- MIC (Klebsiella pneumoniae, KUB No. 5541, AR Bank# 44): 0.5 µg/mL (≈ 0.854 µM)
- MIC (Klebsiella pneumoniae, KUB No. 5543, AR Bank# 46): 2 µg/mL (≈ 3.41 µM)
- MIC (Klebsiella pneumoniae, KUB No. 5546, AR Bank# 49): 4 µg/mL (≈ 6.83 µM)
- MIC (Klebsiella pneumoniae, KUB No. 5563, AR Bank # 66): 2 µg/mL (≈ 3.41 µM)
- MIC (Klebsiella pneumoniae, KUB No. 5565, AR Bank # 68): 2 µg/mL (≈ 3.41 µM)
- MIC (Klebsiella pneumoniae, KUB No. 5572, AR Bank # 75): 2 µg/mL (≈ 3.41 µM)
- MIC (Klebsiella pneumoniae, KUB No. 5573, AR Bank # 76): 0.25 µg/mL (≈ 0.427 µM)
